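Compound exposure: 48 hours, 5 concentrations, 96-well plates. GI50: concentration for 50% inhibition of growth. TGI: concentration producing complete growth inhibition.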
Legend:
Assay in all cases: growth of human tumour cells (NCI), 48 h
OVCAR-5 ovarian = tested on: OVCAR-5 ovarian
CCRF-CEM leukemia = tested on: CCRF-CEM leukemia
SF-539 CNS = tested on: SF-539 CNS
HS 578T breast = tested on: HS 578T breast
M14 melanoma = tested on: M14 melanoma
SK-OV-3 ovarian = tested on: SK-OV-3 ovarian
HCT-116 colon = tested on: HCT-116 colon
NCI-H23 lung = tested on: NCI-H23 lung
MOLT-4 leukemia = tested on: MOLT-4 leukemia
HOP-62 NSCLC = tested on: HOP-62 NSCLC
HL-60(TB) leukemia = tested on: HL-60(TB) leukemia
COLO 205 colon = tested on: COLO 205 colon
HCT-15 colon = tested on: HCT-15 colon
A549 NSCLC = tested on: A549 NSCLC
RPMI-8226 leukemia = tested on: RPMI-8226 leukemia
KM12 colon = tested on: KM12 colon
U251 CNS = tested on: U251 CNS
HT29 colon = tested on: HT29 colon
NCI-H226 lung = tested on: NCI-H226 lung
NCI/ADR-RES ovarian = tested on: NCI/ADR-RES ovarian
UO-31 renal = tested on: UO-31 renal
A498 renal = tested on: A498 renal
SNB-19 CNS = tested on: SNB-19 CNS
UACC-257 melanoma = tested on: UACC-257 melanoma
LOX IMVI melanoma = tested on: LOX IMVI melanoma
MALME-3M melanoma = tested on: MALME-3M melanoma
SR leukemia = tested on: SR leukemia
NCI-H460 lung = tested on: NCI-H460 lung
TK-10 renal = tested on: TK-10 renal
SN12C renal = tested on: SN12C renal
OVCAR-4 ovarian = tested on: OVCAR-4 ovarian
CAKI-1 renal = tested on: CAKI-1 renal
DU-145 prostate = tested on: DU-145 prostate
K-562 leukemia = tested on: K-562 leukemia
MDA-MB-435 = tested on: MDA-MB-435
SK-MEL-5 melanoma = tested on: SK-MEL-5 melanoma
ACHN renal = tested on: ACHN renal
T-47D breast = tested on: T-47D breast
BT-549 breast = tested on: BT-549 breast
RXF 393 renal = tested on: RXF 393 renal
UACC-62 melanoma = tested on: UACC-62 melanoma
IGROV1 ovarian = tested on: IGROV1 ovarian
SF-268 CNS = tested on: SF-268 CNS
MDA-MB-231 breast = tested on: MDA-MB-231 breast
EKVX NSCLC = tested on: EKVX NSCLC
SF-295 CNS = tested on: SF-295 CNS
PC-3 prostate = tested on: PC-3 prostate
HCC-2998 colon = tested on: HCC-2998 colon
OVCAR-3 ovarian = tested on: OVCAR-3 ovarian
OVCAR-8 ovarian = tested on: OVCAR-8 ovarian
SW-620 colon = tested on: SW-620 colon
SNB-75 CNS = tested on: SNB-75 CNS
786-0 renal = tested on: 786-0 renal
MCF7 breast = tested on: MCF7 breast
NCI-H522 lung = tested on: NCI-H522 lung
SK-MEL-28 melanoma = tested on: SK-MEL-28 melanoma

SMILES: CCCCCCCCCC(CCCC(O)CC(=O)O)OC1OC(COC2OC(C)C(O)C(O)C2O)C(O)C(O)C1OC1OC(CO)C(O)C(O)C1OC1OC(C)C(OC(=O)CC(C)C)C(O)C1O (configuration not stated)
- GI50 (OVCAR-5 ovarian): > 60 µM
- TGI (OVCAR-5 ovarian): > 60 µM
- GI50 (CCRF-CEM leukemia): > 60 µM
- TGI (CCRF-CEM leukemia): > 60 µM
- GI50 (SF-539 CNS): > 60 µM
- TGI (SF-539 CNS): > 60 µM
- GI50 (HS 578T breast): > 60 µM
- TGI (HS 578T breast): > 60 µM
- GI50 (M14 melanoma): > 60 µM
- TGI (M14 melanoma): > 60 µM
- GI50 (SK-OV-3 ovarian): > 60 µM
- TGI (SK-OV-3 ovarian): > 60 µM
- GI50 (HCT-116 colon): > 60 µM
- TGI (HCT-116 colon): > 60 µM
- GI50 (NCI-H23 lung): > 60 µM
- TGI (NCI-H23 lung): > 60 µM
- GI50 (MOLT-4 leukemia): > 60 µM
- TGI (MOLT-4 leukemia): > 60 µM
- GI50 (HOP-62 NSCLC): > 60 µM
- TGI (HOP-62 NSCLC): > 60 µM
- GI50 (HL-60(TB) leukemia): > 60 µM
- TGI (HL-60(TB) leukemia): > 60 µM
- GI50 (COLO 205 colon): > 60 µM
- TGI (COLO 205 colon): > 60 µM
- GI50 (HCT-15 colon): > 60 µM
- TGI (HCT-15 colon): > 60 µM
- GI50 (A549 NSCLC): > 60 µM
- TGI (A549 NSCLC): > 60 µM
- GI50 (RPMI-8226 leukemia): > 60 µM
- TGI (RPMI-8226 leukemia): > 60 µM
- GI50 (KM12 colon): > 60 µM
- TGI (KM12 colon): > 60 µM
- GI50 (U251 CNS): > 60 µM
- TGI (U251 CNS): > 60 µM
- GI50 (HT29 colon): > 60 µM
- TGI (HT29 colon): > 60 µM
- GI50 (NCI-H226 lung): > 60 µM
- TGI (NCI-H226 lung): > 60 µM
- GI50 (NCI/ADR-RES ovarian): > 60 µM
- TGI (NCI/ADR-RES ovarian): > 60 µM
- GI50 (UO-31 renal): > 60 µM
- TGI (UO-31 renal): > 60 µM
- GI50 (A498 renal): 0.459 µM
- TGI (A498 renal): 34.5 µM
- GI50 (SNB-19 CNS): > 60 µM
- TGI (SNB-19 CNS): > 60 µM
- GI50 (UACC-257 melanoma): > 60 µM
- TGI (UACC-257 melanoma): > 60 µM
- GI50 (LOX IMVI melanoma): > 60 µM
- TGI (LOX IMVI melanoma): > 60 µM
- GI50 (MALME-3M melanoma): > 60 µM
- TGI (MALME-3M melanoma): > 60 µM
- GI50 (SR leukemia): > 60 µM
- TGI (SR leukemia): > 60 µM
- GI50 (NCI-H460 lung): > 60 µM
- TGI (NCI-H460 lung): > 60 µM
- GI50 (TK-10 renal): > 60 µM
- TGI (TK-10 renal): > 60 µM
- GI50 (SN12C renal): > 60 µM
- TGI (SN12C renal): > 60 µM
- GI50 (OVCAR-4 ovarian): > 60 µM
- TGI (OVCAR-4 ovarian): > 60 µM
- GI50 (CAKI-1 renal): > 60 µM
- TGI (CAKI-1 renal): > 60 µM
- GI50 (DU-145 prostate): > 60 µM
- TGI (DU-145 prostate): > 60 µM
- GI50 (K-562 leukemia): > 60 µM
- TGI (K-562 leukemia): > 60 µM
- GI50 (MDA-MB-435): > 60 µM
- TGI (MDA-MB-435): > 60 µM
- GI50 (SK-MEL-5 melanoma): > 60 µM
- TGI (SK-MEL-5 melanoma): > 60 µM
- GI50 (ACHN renal): > 60 µM
- TGI (ACHN renal): > 60 µM
- GI50 (T-47D breast): > 60 µM
- TGI (T-47D breast): > 60 µM
- GI50 (BT-549 breast): > 60 µM
- TGI (BT-549 breast): > 60 µM
- GI50 (RXF 393 renal): > 60 µM
- TGI (RXF 393 renal): > 60 µM
- GI50 (UACC-62 melanoma): > 60 µM
- TGI (UACC-62 melanoma): > 60 µM
- GI50 (IGROV1 ovarian): > 60 µM
- TGI (IGROV1 ovarian): > 60 µM
- GI50 (SF-268 CNS): > 60 µM
- TGI (SF-268 CNS): > 60 µM
- GI50 (MDA-MB-231 breast): > 60 µM
- TGI (MDA-MB-231 breast): > 60 µM
- GI50 (EKVX NSCLC): > 60 µM
- TGI (EKVX NSCLC): > 60 µM
- GI50 (SF-295 CNS): > 60 µM
- TGI (SF-295 CNS): > 60 µM
- GI50 (PC-3 prostate): > 60 µM
- TGI (PC-3 prostate): > 60 µM
- GI50 (HCC-2998 colon): > 60 µM
- TGI (HCC-2998 colon): > 60 µM
- GI50 (OVCAR-3 ovarian): > 60 µM
- TGI (OVCAR-3 ovarian): > 60 µM
- GI50 (OVCAR-8 ovarian): > 60 µM
- TGI (OVCAR-8 ovarian): > 60 µM
- GI50 (SW-620 colon): > 60 µM
- TGI (SW-620 colon): > 60 µM
- GI50 (SNB-75 CNS): > 60 µM
- TGI (SNB-75 CNS): > 60 µM
- GI50 (786-0 renal): > 60 µM
- TGI (786-0 renal): > 60 µM
- GI50 (MCF7 breast): > 60 µM
- TGI (MCF7 breast): > 60 µM
- GI50 (NCI-H522 lung): > 60 µM
- TGI (NCI-H522 lung): > 60 µM
- GI50 (SK-MEL-28 melanoma): > 60 µM
- TGI (SK-MEL-28 melanoma): > 60 µM

— PubChem BioAssay (NCI)
